Reference: PubChem BioAssay (NCI)
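At the GI50, growth is halved. The concentration for full growth arrest is given as TGI.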

What was measured:
Test in all cases: NCI-60 cell line screen, 384-well format
786-0 renal = system: 786-0 renal
A498 renal = system: A498 renal
A549 NSCLC = system: A549 NSCLC
ACHN renal = system: ACHN renal
BT-549 breast = system: BT-549 breast
CAKI-1 renal = system: CAKI-1 renal
COLO 205 colon = system: COLO 205 colon
DU-145 prostate = system: DU-145 prostate
EKVX NSCLC = system: EKVX NSCLC
HCT-116 colon = system: HCT-116 colon
HCT-15 colon = system: HCT-15 colon
HL-60(TB) leukemia = system: HL-60(TB) leukemia
HOP-62 NSCLC = system: HOP-62 NSCLC
HOP-92 NSCLC = system: HOP-92 NSCLC
HS 578T breast = system: HS 578T breast
HT29 colon = system: HT29 colon
IGROV1 ovarian = system: IGROV1 ovarian
K-562 leukemia = system: K-562 leukemia
KM12 colon = system: KM12 colon
M14 melanoma = system: M14 melanoma
MALME-3M melanoma = system: MALME-3M melanoma
MCF7 breast = system: MCF7 breast
MDA-MB-231 breast = system: MDA-MB-231 breast
MDA-MB-435 melanoma = system: MDA-MB-435 melanoma
MDA-MB-468 breast = system: MDA-MB-468 breast
MOLT-4 leukemia = system: MOLT-4 leukemia
NCI-H226 lung = system: NCI-H226 lung
NCI-H23 lung = system: NCI-H23 lung
NCI-H322M lung = system: NCI-H322M lung
NCI-H460 NSCLC = system: NCI-H460 NSCLC
NCI-H522 lung = system: NCI-H522 lung
OVCAR-3 ovarian = system: OVCAR-3 ovarian
OVCAR-4 ovarian = system: OVCAR-4 ovarian
OVCAR-5 ovarian = system: OVCAR-5 ovarian
OVCAR-8 ovarian = system: OVCAR-8 ovarian
PC-3 prostate = system: PC-3 prostate
RXF 393 renal = system: RXF 393 renal
SF-268 CNS = system: SF-268 CNS
SF-295 CNS = system: SF-295 CNS
SF-539 CNS = system: SF-539 CNS
SK-MEL-2 melanoma = system: SK-MEL-2 melanoma
SK-MEL-28 melanoma = system: SK-MEL-28 melanoma
SK-MEL-5 melanoma = system: SK-MEL-5 melanoma
SK-OV-3 ovarian = system: SK-OV-3 ovarian
SN12C renal = system: SN12C renal
SNB-19 CNS = system: SNB-19 CNS
SNB-75 CNS = system: SNB-75 CNS
SR leukemia = system: SR leukemia
SW-620 colon = system: SW-620 colon
T-47D breast = system: T-47D breast
TK-10 renal = system: TK-10 renal
U251 glioblastoma = system: U251 glioblastoma
UACC-257 melanoma = system: UACC-257 melanoma
UACC-62 melanoma = system: UACC-62 melanoma
UO-31 renal = system: UO-31 renal

## COC1CCC(n2c([C@@H]3CCCC(=O)N3c3ccc(F)c(F)c3)nc3cc(-c4c(C)noc4C)ccc32)CC1 (stereo not given in full)
786-0 renal
  GI50: 2.1 µM
  TGI: 19.9 µM
A498 renal
  GI50: 6.19 µM
  TGI: 19.4 µM
A549 NSCLC
  GI50: 8.03 µM
  TGI: 23.5 µM
ACHN renal
  GI50: 3.62 µM
  TGI: 16.6 µM
BT-549 breast
  GI50: 2.27 µM
  TGI: 15.5 µM
CAKI-1 renal
  GI50: 0.532 µM
  TGI: 13.2 µM
COLO 205 colon
  GI50: 3.44 µM
  TGI: 18.9 µM
DU-145 prostate
  GI50: 12.8 µM
  TGI: 60.4 µM
EKVX NSCLC
  GI50: 15.6 µM
  TGI: 43.2 µM
HCT-116 colon
  GI50: 4.48 µM
  TGI: 18.4 µM
HCT-15 colon
  GI50: 2.95 µM
  TGI: 14.8 µM
HL-60(TB) leukemia
  GI50: 0.0497 µM
  TGI: 1.2 µM
HOP-62 NSCLC
  GI50: 2.92 µM
  TGI: 15.4 µM
HOP-92 NSCLC
  GI50: 4.57 µM
  TGI: 18.8 µM
HS 578T breast
  GI50: 0.716 µM
  TGI: 14.2 µM
HT29 colon
  GI50: 1.6 µM
  TGI: 13.7 µM
IGROV1 ovarian
  GI50: 3.36 µM
  TGI: 15.5 µM
K-562 leukemia
  GI50: 1.51 µM
  TGI: 16.1 µM
KM12 colon
  GI50: 13.6 µM
  TGI: 28.3 µM
M14 melanoma
  GI50: 0.568 µM
  TGI: 14.9 µM
MALME-3M melanoma
  GI50: 1.04 µM
  TGI: 6.35 µM
MCF7 breast
  GI50: 0.0402 µM
  TGI: 12.4 µM
MDA-MB-231 breast
  GI50: 3.05 µM
  TGI: 16.2 µM
MDA-MB-435 melanoma
  GI50: 7.03 µM
  TGI: 23.9 µM
MDA-MB-468 breast
  GI50: 2.94 µM
  TGI: 18.6 µM
MOLT-4 leukemia
  GI50: 2.05 µM
  TGI: 14 µM
NCI-H226 lung
  GI50: 1.07 µM
  TGI: 12.1 µM
NCI-H23 lung
  GI50: 10.2 µM
  TGI: 25.1 µM
NCI-H322M lung
  GI50: 3.02 µM
  TGI: 15.6 µM
NCI-H460 NSCLC
  GI50: 3.29 µM
  TGI: 16.8 µM
NCI-H522 lung
  GI50: 1.38 µM
  TGI: 12.2 µM
OVCAR-3 ovarian
  GI50: 2.9 µM
  TGI: 16.1 µM
OVCAR-4 ovarian
  GI50: 1.79 µM
  TGI: 7.76 µM
OVCAR-5 ovarian
  GI50: 11.3 µM
  TGI: 58.7 µM
OVCAR-8 ovarian
  GI50: 2.8 µM
  TGI: 15.8 µM
PC-3 prostate
  GI50: 3.97 µM
  TGI: 19.5 µM
RXF 393 renal
  GI50: 1.24 µM
  TGI: 5.22 µM
SF-268 CNS
  GI50: 11.9 µM
  TGI: 25.6 µM
SF-295 CNS
  GI50: 5.05 µM
  TGI: 20 µM
SF-539 CNS
  GI50: 5.76 µM
  TGI: 19 µM
SK-MEL-2 melanoma
  GI50: 4.46 µM
  TGI: 18.4 µM
SK-MEL-28 melanoma
  GI50: 7.88 µM
  TGI: 21.6 µM
SK-MEL-5 melanoma
  GI50: 0.489 µM
  TGI: 8.77 µM
SK-OV-3 ovarian
  GI50: 3.96 µM
  TGI: 16.2 µM
SN12C renal
  GI50: 12 µM
  TGI: 25.4 µM
SNB-19 CNS
  GI50: 11.5 µM
  TGI: 27.6 µM
SNB-75 CNS
  GI50: 12.3 µM
  TGI: 26 µM
SR leukemia
  GI50: 1.22 µM
  TGI: 13.8 µM
SW-620 colon
  GI50: 13.9 µM
  TGI: 27.5 µM
T-47D breast
  GI50: 1.87 µM
  TGI: 7.11 µM
TK-10 renal
  GI50: 1.55 µM
  TGI: 11.8 µM
U251 glioblastoma
  GI50: 12 µM
  TGI: 25.9 µM
UACC-257 melanoma
  GI50: 3.1 µM
  TGI: 17.4 µM
UACC-62 melanoma
  GI50: 0.385 µM
  TGI: 12.1 µM
UO-31 renal
  GI50: 2.13 µM
  TGI: 13.8 µM
